Results published in patent US7629377B2, “Substituted naphthyl indole derivatives as inhibitors of plasminogen activator inhibitor type-1 (PAI-1)” (Wyeth, priority 2008, dated 2009).

Key:
[1] = biological target: T1, recombinant human plasminogen activator inhibitor-1 (PAI-1) (Homo sapiens, UniProt P05121); test: modification of the Primary Screen for PAI-1 Inhibition; assay type: biochemical; conditions: modification of the Primary Screen (footnote b); residual tPA activity, Spectrozyme-tPA
T1 construct: purchased Molecular Innovations, Royal Oak, Mich
Description: Primary Screen for the PAI-1 Inhibition
Test compounds are dissolved in DMSO at a final concentration of 10 mM, then diluted […] in physiologic buffer. The inhibitory assay is initiated by the addition of test compound (1-100 μM final concentration, maximum DMSO concentration of 0.2%) in a pH 6.6 buffer containing 140 nM recombinant human plasminogen activator inhibitor-1 (PAI-1; Molecular Innovations, Royal Oak, Mich. Following a 1 hour incubation at room temperature, 70 nM of recombinant human tissue plasminogen activator (tPA) is added, and the combination of test compound, PAI-1 and tPA is incubated for an additional 30 minutes. Following the second incubation, Spectrozyme-tPA (American Diagnostica, Greenwich, Conn.), a chromogenic substrate for tPA, is added and absorbance read at 405 nm at 0 and 60 minutes. Relative PAI-1 inhibition is equal to the residual tPA activity in the presence of test compound and PAI-1. Control treatments include the complete inhibition of tPA by PAI-1 at the molar ratio employed (2:1), and the absence of any effect of the test compound on tPA alone.

human PAI-1 = human PAI-1 (Homo sapiens, UniProt P05121); test: Assay for Determining IC50 of Inhibition of PAI-1 (Antibody Assay); assay type: biochemical; conditions: for IC50: Antibody Assay (footnote a), active PAI-1 bound to tPA-coated plate, pH 7.5; for inhibition at 25 µM: 25 μM test compound, footnote a (Antibody Assay)
Description: Assay for Determining IC50 of Inhibition of PAI-1
This assay is based upon the non-SDS dissociable interaction between tPA and active PAI-1. Assay plates are initially coated with human tPA (10 μg/ml). Test compounds are dissolved in DMSO at 10 mM, then diluted with physiologic buffer (pH 7.5) to a final concentration of 1-50 μM. Test compounds are incubated with human PAI-1 (50 ng/ml) for 15 minutes at room temperature. The tPA-coated plate is washed with a solution of 0.05% Tween 20 and 0.1% BSA, then the plate is blocked with a solution of 3% BSA. An aliquot of the test compound/PAI-1 solution is then added to the tPA-coated plate, incubated at room temperature for 1 hour, and washed. Active PAI-1 bound to the plate is assessed by adding an aliquot of a 1:1000 dilution of the 33B8 monoclonal antibody against human PAI-1, and incubating the plate at room temperature for 1 hour (Molecular Innovations, Royal Oak, Mich. The plate is again washed, and a solution of goat anti-mouse IgG-alkaline phosphatase conjugate is added at a 1:50,000 dilution in goat serum. The plate is incubated 30 minutes at room temperature, washed, and a solution of alkaline phosphatase substrate is added. The plate is incubated 45 minutes at room temperature, and color development is determined at OD405 nm. The quantitation of active PAI-1 bound to tPA at varying concentrations of test compound is used to determine the IC50. Results are analyzed using a logarithmic best-fit equation. The assay sensitivity is 5 ng/ml of human PAI-1 as determined from a standard curve ranging from 0-100 ng/ml.

T1 sequence (P05121 24-402): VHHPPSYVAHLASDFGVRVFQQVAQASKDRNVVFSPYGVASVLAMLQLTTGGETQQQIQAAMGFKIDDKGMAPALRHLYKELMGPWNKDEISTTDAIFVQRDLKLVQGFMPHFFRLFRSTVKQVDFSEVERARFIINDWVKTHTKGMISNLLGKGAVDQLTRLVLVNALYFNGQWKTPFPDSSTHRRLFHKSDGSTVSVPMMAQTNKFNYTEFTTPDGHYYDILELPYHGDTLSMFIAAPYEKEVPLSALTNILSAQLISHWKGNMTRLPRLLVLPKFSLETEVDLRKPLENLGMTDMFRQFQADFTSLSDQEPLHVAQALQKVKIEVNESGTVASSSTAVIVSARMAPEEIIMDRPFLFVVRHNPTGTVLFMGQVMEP
Sequence of human PAI-1 (P05121 24-402): as above

IC50 [1] | melting point | IC50 (human PAI-1) | inhibition at 25 µM (human PAI-1) | SMILES
17.4 µM | > 125 °C (dec.) |  |  | CCCCCc1c(-c2ccc3c(Br)c(OCc4nnn[nH]4)ccc3c2)n(C)c2ccccc12 [Example 4, 2-[5-Bromo-6-(1H-tetraazol-5-ylmethoxy)-2-naphthyl]-1-methyl-3-pentyl-1H-indole]
8.8 µM | > 70 °C (dec.) |  |  | CCCCCc1c(-c2ccc3c(Br)c(OCc4nnn[nH]4)ccc3c2)n(Cc2ccccc2)c2ccccc12 [Example 2, 1-Benzyl-2-[5-bromo-6-(1H-tetraazol-5-ylmethoxy)-2-naphthyl]-3-pentyl-1H-indole]
 | 120 to 122 °C | 16.2 µM |  | CCCCCc1c(-c2ccc3cc(OCc4nnn[nH]4)ccc3c2)n(C)c2ccccc12 [Example 3, 1-Methyl-3-pentyl-2-[6-(1H-tetraazol-5-ylmethoxy)-2-naphthyl]-1H-indole]
 | > 79 °C (dec.) |  | 16% | CCCCCc1c(-c2ccc3c(Br)c(OCc4nnn[nH]4)ccc3c2)n(C(C)=O)c2ccccc12 [Example 6, 1-Acetyl-2-[5-bromo-6-(1H-tetraazol-5-ylmethoxy)-2-naphthyl]-3-pentyl-1H-indole]
 | > 73 °C (dec.) | 10.7 µM |  | CCCCCc1c(-c2ccc3c(Br)c(OCC(=O)O)ccc3c2)n(C)c2ccccc12 [Example 11, {[1-Bromo-6-(1-methyl-3-pentyl-1H-indol-2-yl)-2-naphthyl]oxy}acetic acid]

The remaining lines, values behind:

SMILES | IC50 [1] | melting point | IC50 (human PAI-1) | inhibition at 25 µM (human PAI-1)
CCCCCc1c(-c2ccc3cc(OCc4nnn[nH]4)ccc3c2)n(C(C)=O)c2ccccc12 [Example 5, 1-Acetyl-3-pentyl-2-[6-(1H-tetraazol-5-ylmethoxy)-2-naphthyl]-1H-indole] | 9.2 µM | > 95 °C (dec.) |  | 
CCCCCc1c(-c2ccc3c(Br)c(OCc4nnn[nH]4)ccc3c2)n(Cc2ccccc2C(F)(F)F)c2ccccc12 [Example 8, 2-[5-Bromo-6-(1H-tetraazol-5-ylmethoxy)-2-naphthyl]-3-pentyl-1-[2-(trifluoromethyl)benzyl]-1H-indole] |  | > 85 °C (dec.) |  | 57%
CCCCCc1c(-c2ccc3cc(OCc4nnn[nH]4)ccc3c2)n(Cc2ccc(C(C)(C)C)cc2)c2ccccc12 [Example 9, 1-(4-tert-Butylbenzyl)-3-pentyl-2-[6-(1H-tetraazol-5-ylmethoxy)-2-naphthyl]-1H-indole] |  | > 95 °C (dec.) | 24.9 µM | 
CCCCCc1c(-c2ccc3cc(OCc4nnn[nH]4)ccc3c2)n(Cc2ccccc2)c2ccccc12 [Example 1, 1-Benzyl-3-pentyl-2-[6-(1H-tetraazol-5-ylmethoxy)-2-naphthyl]-1H-indole] |  |  | 9.85 µM | 
CCCCCc1c(-c2ccc3c(Br)c(OCc4nnn[nH]4)ccc3c2)n(Cc2ccc(C(C)(C)C)cc2)c2ccccc12 [Example 10, 2-[5-Bromo-6-(1H-tetraazol-5-ylmethoxy)-2-naphthyl]-1-(4-tert-butylbenzyl)-3-pentyl-1H-indole] |  | > 90 °C (dec.) |  | 60%
CCCCCc1c(-c2ccc3cc(OCc4nnn[nH]4)ccc3c2)n(Cc2ccccc2C(F)(F)F)c2ccccc12 [Example 7, 3-Pentyl-2-[6-(1H-tetraazol-5-ylmethoxy)-2-naphthyl]-1-[2-(trifluoromethyl)benzyl]-1H-indole] |  | > 100 °C (dec.) | 5.22 µM | 
